The subject of the experiment is PLD (phospholipase D). The experiment in a line: Assay for PLD activity (release of 3H choline from radiolabeled PC). Conditions: substrate [methyl-3H] choline dipalmitoyl PC; PLDT buffer (20 mM Tris-HCl pH 7.0, 1.0 mM EDTA, 0.05% Triton X-100), 37° C. Format: biochemical. The protocol:
The PLD assay measured the release of ^3 H choline from radiolabeled PC (Steed et al. (1996) Biochemistry 35:5229-5237). Product was separated from substrate by partitioning into water from a chloroform:methanol extraction. ^3 H PC substrate was prepared by drying stock (in methanol) with argon and re-dissolving into minimal volumes of methanol (2-10 μl). After dilution with a buffer of 20 mM Tris-HCl, pH 7.0, 1.0 mM EDTA and 0.05% Triton X-100 (PLDT buffer) to a 5× concentration, the substrate was sonicated for 30 sec and used immediately. The assay was performed with 1.0 μM [methyl-^3 H] choline L-a-PC dipalmitoyl phosphatidylcholine (0.1 μCi/assay) and enzyme with PLDT buffer added to a final volume of 50 μl using polypropylene tubes. Since the estimated Km is greater than 1 μM, PC is limiting in this assay. Unfortunately, the solubility constraints of the lipid substrate preclude the use of higher PC concentrations. […] The radioactivity in the aqueous phase (200 μl) was counted in either a Beckman LS 3801 (Beckman Instruments Columbia Md.) or Wallac 1450 Microbeta Plus (Wallac Inc., Gaithersburg Md.) liquid scintillation counter after the addition of scintillant. […] The material was assayed using transphosphatidylation to butanol and ethanol to verify that PLD activity is being measured. […]

The source of these data is US6187559A, “Phospholipase D gene” (Novartis AG, priority 1998, dated 2001).

Molecules are shown by their SMILES.

Turning to `CCCCCCCCCCCCCCCC(=O)OC[C@H](COP(=O)([O-])OCC[N+](C)(C)C)OC(=O)CCCCCCCCCCCCCCC` [PC, dipalmitoyl phosphatidylcholine], the “estimated Km” value is on record as “greater than 1 μM”.
